Results reported in patent US20150297733A1 (TRIMEL BIOPHARMA SRL, priority 2012, published 2015).
Where two headings read alike, the source gives them in different places.

Legend:
[1] = target: T1, sex hormone binding globulin (SHBG) (Homo sapiens, UniProt P04278); conditions: cited from earlier work
T1 sequence (P04278 30-402): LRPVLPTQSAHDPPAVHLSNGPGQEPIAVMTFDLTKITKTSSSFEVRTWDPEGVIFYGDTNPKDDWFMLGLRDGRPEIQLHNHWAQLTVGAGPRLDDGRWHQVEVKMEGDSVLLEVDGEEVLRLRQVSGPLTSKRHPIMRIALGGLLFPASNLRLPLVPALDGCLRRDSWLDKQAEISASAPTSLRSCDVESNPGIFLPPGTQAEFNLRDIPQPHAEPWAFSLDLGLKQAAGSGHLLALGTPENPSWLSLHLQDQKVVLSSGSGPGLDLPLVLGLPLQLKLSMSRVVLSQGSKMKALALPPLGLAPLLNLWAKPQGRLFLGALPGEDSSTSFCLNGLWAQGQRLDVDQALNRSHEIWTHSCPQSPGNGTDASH

[2] = Solubility of testosterone in water, oils, solvents and vehicles
[3] = dissolved in polyethylene glycol (200 mg/ml); high variations; cited from earlier work
[4] = nasal, cited from earlier work
[5] = nasal, cited from earlier work; remark: listed apart in the source

C[C@]12CC[C@H]3[C@@H](CCC4=CC(=O)CC[C@@]43C)[C@@H]1CC[C@@H]2O [Testosterone]
fraction remaining unbound (free) ([1]; in men): about 2% | fraction remaining unbound (free) ([1]; in women): up to 3% | amount dissolved by diethyleneglycol ethyl ether alone [2]: more than 10% | amount dissolved by dimethyl isosorbide (DMI) [2]: more than 12% | testosterone levels in the gel allowed by DMI with the other excipients [2]: at least 8.0% | testosterone solubility in the oil based gel ([2]; oil based TBS-1A gel as printed): ≤ 4.5%

CC(=O)[C@H]1CC[C@H]2[C@@H]3CCC4=CC(=O)CC[C@]4(C)[C@H]3CC[C@]12C [progesterone]
duration of serum level [3]: at least 8 hours | Tmax ([4]; co-ground and co-lyophilized progesterone/cyclodextrin powder mixtures): 2 to 5 min | time of serum level decrease ([4]; progesterone/cyclodextrin powder mixtures): ≤ 20 min

CN(C)CC(=O)O[C@H]1CC[C@H]2[C@@H]3CCC4=CC(=O)CC[C@]4(C)[C@H]3CC[C@]12C [testosterone 17β-N,N-dimethylglycinate]
time to peak plasma concentration ([5]; 25 mg dose): ≤ 12 min | time to peak plasma concentration ([5]; 50 mg dose): ≤ 20 min
